Patent US10100050B2 (CHIESI FARMACEUTICI S.P.A., priority 2015, dated 2018)
Counter-ions that a name gives are not always drawn.

What was measured:
[1] = test system: Peripheral Blood Mononuclear Cells (PBMCs); assay: LPS-stimulated PBMC TNFα release assay; type: cell-based; details: IC50 classes; human PBMC, LPS 10 ng/ml, 18 h; read-out: LPS-stimulated PBMC TNFα release inhibition
Protocol: 1-10 nM ‘+’; • <1 nM ‘++’ LPS-Stimulated PBMC TNFα Release Assay
Peripheral Blood Mononuclear Cells (PBMCs) were isolated from healthy human volunteer blood using a standard density gradient centrifugation technique. Citrated blood was placed onto Histopaque™ and centrifuged. The PBMCs were removed from the density gradient interface and washed in phosphate buffered saline (PBS). The PBMCs were suspended in RPMI 1640 medium (without serum), dispensed into a 96-well plate and incubated at 37° C. for 3 h in a humidified incubator. After incubation, the medium was replaced (with medium containing 1% foetal bovine serum) and the plate incubated at 37° C., for 1 h, in the presence of test compound or the appropriate vehicle. LPS (10 ng/ml), or an appropriate vehicle control, was then added to the cells and the plate returned to the incubator for 18 h. Cell-free supernatants were removed and assayed for TNFα levels using MSD plates on the Sector Imager 6000 (MesoScale).
A dose response curve to each test compound was performed and the effect of compound in each experiment was expressed as a percentage inhibition of the control TNFα release. Dose response curves were plotted and compound potency (IC50) was determined. Compounds were tested in at least three separate experiments.

[2] = test system: BEAS-2B cells; assay: TNFα-stimulated BEAS-2B IL-8 release assay; type: cell-based; details: Homo sapiens, IC50 classes, TNF-α 10 ng/ml, 18 h, read-out: TNFα-stimulated BEAS-2B IL-8 release inhibition
Protocol: TNFα-Stimulated BEAS-2B IL-8 Release Assay
Human bronchial epithelial cell line BEAS-2B was purchased from Sigma (St. Louis, Mo.). BEAS-2B cells were cultured in Bronchial Epithelial cell Growth Medium (BEGM), prepared by supplementing Bronchial Epithelial Basal Medium with SingleQuotes™ (Lonza, Switzerland), which contains retinoic acid, epidermal growth factor, epinephrine, transferrin, triiodothyronin, insulin, hydrocortisone, antimicrobial agents, and bovine pituitary extract. In addition, BEGM medium was supplemented with 2 mM glutamine, 100 U penicillin and 100 μg/ml streptomycin (Life Technologies), in an atmosphere of 95% air and 5% CO2 at 37° C.
BEAS-2B were seeded in 48-well plates at the density of 3×10^4 cells per well, grown to approximately 80-90% confluence. Cells were pre-incubated with p38 inhibitors for 1 hour and then stimulated with TNF-α (10 ng/ml) for 18 h at 37° C. with 5% CO2. Subsequently, supernatants were collected and used for measuring IL-8 levels using a paired antibody quantitative ELISA kit purchased from Life Technologies (detection limit: […]). All the treatments were performed at least in quadruplicate.
A concentration-response curve to each test compound was performed and the effect of compound in each experiment was expressed as a percentage inhibition of the control IL-8 release. Compound potency (IC50) was calculated by the analysis of the sigmoidal dose-response curve (variable slope) elaborated by Graph Pad PRISM4 program.

[3] = target: T1, p38alpha (Homo sapiens, UniProt Q16539); assay: P38alpha enzyme inhibition assay (Alphascreen kinase activity assay); type: biochemical; details: IC50 classes; 2 hours preincubation at 25° C., 250 μM ATP; read-out: p38α inhibition
T1 construct: purchased Invitrogen PV3304
Protocol: P38alpha Enzyme Inhibition Assay
The inhibitory activity of compounds was determined using an Alphascreen® (Perkin Elmer) based kinase activity assay. Kinase reactions consisted of 25 mM HEPES pH 7.5, 10 mM MgCl2, 100 μM Na3VO4, 2 mM DTT, 0.05 mg/ml Tween […] (Invitrogen, PV3304), 1% DMSO and 0.3 μg/ml ATF-2 fusion protein (New England Biolabs, 9224). Compounds were incubated under these conditions for 2 hours, at 25° C., prior to the initiation of the kinase activity by the addition of the 250 μM ATP. Reaction volumes were 20 uL. After 1 hr at 25° C. reactions were stopped by the adding 10 uL of 25 mM HEPES pH 7.5 containing 62.5 mM EDTA, 0.05% Triton X-100, 10% BSA and 0.83 ng/uL anti-phospho-ATF2 antibody (Abcam, ab28812). Detection was performed by measuring luminescence following the addition of Alphascreen Donor beads (Perkin Elmer 6765300) and Protein A Alphascreen Acceptor beads (Perkin Elmer 6760137), both at a final concentration of 20 ug/ml. IC50 values were determined from concentration-response curves.

T1 sequence (Q16539 whole entry): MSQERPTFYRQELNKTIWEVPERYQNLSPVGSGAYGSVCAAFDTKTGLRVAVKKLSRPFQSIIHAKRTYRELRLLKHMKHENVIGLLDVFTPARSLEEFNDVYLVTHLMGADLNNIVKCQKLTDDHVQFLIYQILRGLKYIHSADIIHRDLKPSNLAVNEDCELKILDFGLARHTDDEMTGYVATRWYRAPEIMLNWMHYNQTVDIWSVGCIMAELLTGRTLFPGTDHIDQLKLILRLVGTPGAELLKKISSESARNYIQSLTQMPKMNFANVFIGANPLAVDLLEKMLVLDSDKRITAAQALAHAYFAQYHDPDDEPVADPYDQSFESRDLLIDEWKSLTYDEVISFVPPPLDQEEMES

| IC50 [3] [nM] | Structure (SMILES) | IC50 [1] [nM] | IC50 [2] [nM] |
| --- | --- | --- | --- |
| < 1 | C[C@H]1CCCCN1c1nnc2ccc(O[C@@H]3CC[C@H](NC(=O)Nc4cc(COCCN(C)C)cc(C(C)(C)C)c4)c4ccccc43)cn12 [Example 70, 1-[3-tert-Butyl-5-(2-dimethylamino-ethoxymethyl)-phenyl]-3-{(1S,4R)-4-[3-((S)-2-methyl-piperidin-1-yl)-[1,2,4]triazolo[4,3-a]pyridin-6-yloxy]-1,2,3,4-tetrahydro-naphthalen-1-yl}-urea] | > 5 | 0.3 to 1 |
| < 1 | CN1CCC[C@@]1(C)c1nnc2ccc(O[C@@H]3CC[C@H](NC(=O)Nc4cc(C(C)(C)C)ccc4CO)c4ccccc43)cn12 [Example 59, 1-(5-tert-Butyl-2-hydroxymethyl-phenyl)-3-{(1S,4R)-4-[3-((S)-1,2-dimethyl-pyrrolidin-2-yl)-[1,2,4]triazolo[4,3-a]pyridin-6-yloxy]-1,2,3,4-tetrahydro-naphthalen-1-yl}-urea] | < 1 | < 0.3 |
| 1 to 10 | COC(=O)Nc1cc(NC(=O)N[C@H]2CC[C@@H](Oc3ccc4nnc([C@]5(C)CCCN5C)n4c3)c3ccccc32)cc(C(C)(C)C)c1 [Example 46, [3-tert-Butyl-5-(3-{(1S,4R)-4-[3-((S)-1,2-dimethyl-pyrrolidin-2-yl)-[1,2,4]triazolo[4,3-a]pyridin-6-yloxy]-1,2,3,4-tetrahydro-naphthalen-1-yl}-ureido)-phenyl]-carbamic acid methyl ester] | < 1 | < 0.3 |
| < 1 | CN(C)Cc1cc(NC(=O)N[C@H]2CC[C@@H](Oc3ccc4nnc([C@]5(C)CCCN5C)n4c3)c3ccccc32)cc(C(C)(C)C)c1 [Example 65, 1-(3-tert-Butyl-5-dimethylaminomethyl-phenyl)-3-{(1S,4R)-4-[3-((S)-1,2-dimethyl-pyrrolidin-2-yl)-[1,2,4]triazolo[4,3-a]pyridin-6-yloxy]-1,2,3,4-tetrahydro-naphthalen-1-yl}-urea] | 1 to 5 | 0.3 to 1 |
| 1 to 10 | C[C@H]1CCCCN1c1nnc2ccc(O[C@@H]3CC[C@H](NC(=O)Nc4cc(C(C)(C)C)ccc4CN4CCOCC4)c4ccccc43)cn12 [Example 74, 1-(5-tert-Butyl-2-morpholin-4-ylmethyl-phenyl)-3-{(1S,4R)-4-[3-((S)-2-methyl-piperidin-1-yl)-[1,2,4]triazolo[4,3-a]pyridin-6-yloxy]-1,2,3,4-tetrahydro-naphthalen-1-yl}-urea] | > 5 | 0.3 to 1 |
| 1 to 10 | CN1CCC[C@H]1c1nnc2ccc(O[C@@H]3CC[C@H](NC(=O)Nc4cc(N5CCOCC5)cc(C(C)(C)C)c4)c4ccccc43)cn12 [Example 58, 1-(3-tert-Butyl-5-morpholin-4-yl-phenyl)-3-{(1S,4R)-4-[3-((S)-1-methyl-pyrrolidin-2-yl)-[1,2,4]triazolo[4,3-a]pyridin-6-yloxy]-1,2,3,4-tetrahydro-naphthalen-1-yl}-urea] | > 5 | 0.3 to 1 |
| < 1 | CN1CCC[C@@]1(C)c1nnc2ccc(O[C@@H]3CC[C@H](NC(=O)Nc4cc(C(N)=O)cc(C(C)(C)C)c4)c4ccccc43)cn12 [Example 53, 3-tert-Butyl-5-(3-{(1S,4R)-4-[3-((S)-1,2-dimethyl-pyrmlidin-2-yl)-[1,2,4]triazolo[4,3-a]pyridin-6-yloxy]-1,2,3,4-tetrahydro-naphthalen-1-yl}-ureido)-benzamide] | < 1 | < 0.3 |
| 1 to 10 | CN1CCC[C@@]1(C)c1nnc2ccc(O[C@@H]3CC[C@H](NC(=O)Nc4cc(C(C)(C)C)ccc4CN4CCOCC4)c4ccccc43)cn12 [Example 73, 1-(5-tert-Butyl-2-morpholin-4-ylmethyl-phenyl)-3-{(1S,4R)-4-[3-((S)-1,2-dimethyl-pyrrolidin-2-yl)-[1,2,4]triazolo[4,3-a]pyridin-6-yloxy]-1,2,3,4-tetrahydro-naphthalen-1-yl}-urea] | > 5 | 0.3 to 1 |

The remaining lines, values behind:

| Structure (SMILES) | IC50 [3] [nM] | IC50 [1] [nM] | IC50 [2] [nM] |
| --- | --- | --- | --- |
| CNC(=O)c1cc(C(C)(C)C)cc(NC(=O)N[C@H]2CC[C@@H](Oc3ccc4nnc([C@@H]5CCCN5C)n4c3)c3ccccc32)c1OC [Example 7, 5-tert-Butyl-2-methoxy-N-methyl-3-(3-{(1S,4R)-4-[3-((S)-1-methyl-pyrrolidin-2-yl)-[1,2,4]triazolo[4,3-a]pyridin-6-yloxy]-1,2,3,4-tetrahydro-naphthalen-1-yl}-ureido)-benzamide hydrochloride salt] | < 1 | < 1 | 0.3 to 1 |
| CN(C)C(C)(C)c1nnc2ccc(O[C@@H]3CC[C@H](NC(=O)Nc4cc(NS(C)(=O)=O)cc(C(C)(C)C)c4)c4ccccc43)cn12 [Example 19, N-[3-tert-Butyl-5-(3-{(1S,4R)-4-[3-(1-dimethylamino-1-methyl-ethyl)-[1,2,4]triazolo[4,3-a]pyridin-6-yloxy]-1,2,3,4-tetrahydro-naphthalen-1-yl}-ureido)-phenyl]-methanesulfonamide] | < 1 | < 1 | < 0.3 |
| CN1CCC[C@@]1(C)c1nnc2ccc(O[C@@H]3CC[C@H](NC(=O)Nc4cc(NS(=O)(=O)C5CC5)cc(C(C)(C)C)c4)c4ccccc43)cn12 [Example 37, Cyclopropanesulfonic acid [3-tert-butyl-5-(3-{(1S,4R)-4-[3-((S)-1,2-dimethyl-pyrrolidin-2-yl)-[1,2,4]triazolo[4,3-a]pyridin-6-yloxy]-1,2,3,4-tetrahydro-naphthalen-1-yl}-ureido)-phenyl]-amide] | 1 to 10 | < 1 | < 0.3 |
| COc1ccc(C(C)(C)C)cc1NC(=O)N[C@H]1CC[C@@H](Oc2ccc3nnc([C@@H]4CCCN4C)n3c2)c2ccccc21 [Example 1, hydrochloride salt] | < 1 | < 1 | < 0.3 |
| COc1c(CO)cc(C(C)(C)C)cc1NC(=O)N[C@H]1CC[C@@H](Oc2ccc3nnc([C@@H]4CCCCN4C)n3c2)c2ccccc21 [Example 5, 1-(5-tert-Butyl-3-hydroxymethyl-2-methoxy-phenyl)-3-{(1S,4R)-4-[3-((S)-1-methyl-piperidin-2-yl)-[1,2,4]triazolo[4,3-a]pyridin-6-yloxy]-1,2,3,4-tetrahydro-naphthalen-1-yl}-urea] | 1 to 10 | < 1 | < 0.3 |
| CN1CCC[C@@]1(C)c1nnc2ccc(O[C@@H]3CC[C@H](NC(=O)Nc4cc(CNS(C)(=O)=O)cc(C(C)(C)C)c4)c4ccccc43)cn12 [Example 45, N-[3-tert-Butyl-5-(3-{(1S,4R)-4-[3-((S)-1,2-dimethyl-pyrrolidin-2-yl)-[1,2,4]triazolo[4,3-a]pyridin-6-yloxy]-1,2,3,4-tetrahydro-naphthalen-1-yl}-ureido)-benzyl]-methanesulfonamide] | < 1 | < 1 | < 0.3 |
| CNS(=O)(=O)c1cc(NC(=O)N[C@H]2CC[C@@H](Oc3ccc4nnc([C@@H]5CCCN5C)n4c3)c3ccccc32)cc(C(C)(C)C)c1 [Example 38, 3-tert-Butyl-N-methyl-5-(3-{(1S,4R)-4-[3-((S)-1-methyl-pyrrolidin-2-yl)-[1,2,4]triazolo[4,3-a]pyridin-6-yloxy]-1,2,3,4-tetrahydro-naphthalen-1-yl}-ureido)-benzenesulfonamide] | < 1 | 1 to 5 | 0.3 to 1 |
